Key:
[1] = system: Male Swiss mice; test: Hot plate method, analgesic activity in mice; assay type: in vivo; conditions: for change in vivo at 15 mg/kg: Mus musculus, ip, 0.5 h, hot plate test, intraperitoneal adm., n = 20, read-out: % response time increase; for % response time increase on hot plate: 20 μmol/kg, oral adm., n = 20-40
Protocol: The pharmacological activity of the products of the present invention was tested in vivo in several experimental models, which are known to evaluate the pain in animals.
The method that was used is described by Eddy N. B. and Leimbach D. (J. Pharm. Exp. Ther. 107: 385-393, 1953). The analgesic effect of the products was evaluated analysing the behaviour of the animals on a hot surface at 55° C.±1° C.
Male Swiss mice weighing 20-25 g were used. The compounds being tested were administered orally or intraperitoneally 1 hour o 30 minutes before starting the test, respectively.
The process consisted of placing the animals on the plate and keeping them in a Plexiglas cylinder 25 cm high and 21 cm […]. The time the animals took to jump off the hot surface was determined. The animals were selected before starting the test so that those that took longer than 10 seconds to jump off were not included in the group that would receive treatment.
30 minutes after administering the product being tested, the test was repeated and the maximum time it took the animals to jump off was again recorded.
The results are expressed as the […] of jump time increase calculated as follows: [formula]
In order to determine the duration of the analgesic effect of the orally administered products, the analgesic activity was evaluated on the hot plate 1, 3, 6, 8, and 24 hours after the administration of the product, as well as the control group which received treatment only with the vehicle. The base responses were evaluated at 30 and 5 minutes prior to administering the products.

[2] = system: Male Swiss mice; test: Determination of the DL50 (acute single dose oral toxicity); assay type: in vivo; conditions: oral single administration, 14 days observation
Protocol: b) Determination of the DL50 in the Products.
(EUDRA/S/87/011, Single Dose Toxicity, European Directive 75/318/EEC) (ICH S4, Toxicity Studies, single dose and repeated dose, CPMP vol III Feb. 87, Single dose toxicity)
Male Swiss mice of the same batch weighing 20-25 g are used in order to estimate the acute toxicity of the products.
Prior to administering the products, the animals were forced to fast for 12 hours with no intake of food but free access to water. Several subgroups of 10 animals were randomly selected and orally given increasing doses of the products in single administration, after which they remained under observation for a period of 14 days with free access to water and food. Finally, the number of dead animals of each subgroup was quantified and the value of the DL50 was calculated (1-2).

SMILES | change in vivo at 15 mg/kg [1] [%] | % response time increase on hot plate [1] [%] | DL50 approx. Oral adm. [2] [mg/kg]
CC(C)Cc1ccc(C(C)C(=O)Oc2cccc(C3=C(CN(C)C)CCCC3)c2)cc1 (stereo not drawn) [EXAMPLE 4, 3-(2-Dimethylaminomethyl-cyclohex-1-enyl)-phenyl 2-(4-Isobutyl-phenyl)-propionate] | 333 ± 134 |  | 
CC(C)Cc1ccc(C(C)C(=O)Oc2cccc(C3(O)CCCCC3CN(C)C)c2)cc1 (stereo not drawn) [EXAMPLE 1, 3-(2-Dimethylaminomethyl-1-hydroxycyclohexyl)-phenyl 2-(4-Isobutyl-phenyl)-propionate] | 568 ± 100 | 210 ± 88 | ~900
COc1ccc2cc(C(C)C(=O)Oc3cccc(C4=C(CN(C)C)CCCC4)c3)ccc2c1 (stereo not drawn) [EXAMPLE 5, 3-(2-Dimethylaminomethyl-cyclohex-1-enyl)-phenyl 2-(6-Methoxy-naphthalen-2-yl)-propionate] | 356 ± 151 |  | 
COc1cccc(C2(O)CCCCC2CN(C)C)c1 (single isomer, unassigned) [Tramadol, (1R, 2R or 1S, 2S)-2-[(dimethylamino)methyl]-1-(3-methoxyphenyl) cyclohexanol, reference compound] | 218 ± 98 | 87 ± 23 | ~350
CN(C)CC1CCCCC1(O)c1cccc(OC(=O)C2CCn3c(C(=O)c4ccccc4)ccc32)c1 (stereo not drawn) [EXAMPLE 3, 3-(2-Dimethylaminomethyl-1-hydroxycyclohexyl)-phenyl 5-Benzoyl-2,3-dihydro-1H-pyrrolizine-1-carboxylate] | 416 ± 146 |  | 
CN(C)CC1=C(c2cccc(OC(=O)c3ccccc3O)c2)CCCC1 [EXAMPLE 7, 3-(2-Dimethylaminomethyl-cyclohex-1-enyl)-phenyl 2-Hydroxybenzoate] | 634 ± 42 |  | 
CN(C)CC1CCCCC1(O)c1cccc(OC(=O)c2ccccc2O)c1 (stereo not drawn) [EXAMPLE 6, 3-(2-Dimethylaminomethyl-1-hydroxy-cyclohexyl)-phenyl (RR-SS)-2-hydroxybenzoate] | 546 ± 63 | 248 ± 72 | ~550
COc1ccc2cc(C(C)C(=O)Oc3cccc(C4(O)CCCCC4CN(C)C)c3)ccc2c1 (stereo not drawn) [EXAMPLE 2, 3-(2-Dimethylaminomethyl-1-hydroxyyclohexyl)-phenyl 2-(6-Methoxy-naphthalen-2-yl)-propionate] | 539 ± 50 |  | 
CN(C)CC1CCCCC1(O)c1cccc(OC(=O)c2ccccc2OC(=O)N(C)C)c1 (stereo not drawn) [EXAMPLE 8, 3-(2-Dimethylaminomethyl-1-hydroxy-cyclohexyl)-phenyl (RR-SS)-2-dimethylcarbamoyloxy-benzoate] | 327 ± 65 |  | 

— patent publication US6455585B1, “Esters derived from substituted phennyl-cyclohexyl compounds” (Vita Invest, S.A., priority 1998, dated 2002)
